Assay results as given in patent US20230132823A1, “BI-FUNCTIONAL COMPOUNDS AND METHODS FOR TARGETED UBIQUITINATION OF ANDROGEN RECEPTOR” (MONTELINO THERAPEUTICS, INC., priority 2020, published 2023).
Like-named read-outs stand apart in the source and are kept apart here. Where a SMILES comes first, the peptide text is derived from it. [ ]: non-standard residue; d: D form. The star is where a group is joined. ξ: configuration not given here. X1 = O=C(COc1c(-c2csc(N3CCOCC3)n2)ccc(F)c1F)NCCCCCCN*; Dip = N[C@H](C(=O)O)C(c1ccccc1)c1ccccc1; Chg = N[C@H](C(=O)O)C1CCCCC1; NMeA = CN[C@@H](C)C(=O)O; ξP = O=C(O)C1CCCN1

Key:
AR-FL = target: T1, AR-FL (Homo sapiens, UniProt P10275, DUP590-628/H875Y); test: Immunoblot analysis of AR-FL protein in CaP cells (Experimental Example 3); format: cell-based; set-up: decreased AR-V7 and AR-FL protein expression levels in 22Rv1 cells; endogenous in cells; host or cells: 22Rv1 (also VCaP, LNCaP and SAT-resistant sublines)
T1 sequence (P10275 with tags, fused parts or gaps DUP590-628/H875Y): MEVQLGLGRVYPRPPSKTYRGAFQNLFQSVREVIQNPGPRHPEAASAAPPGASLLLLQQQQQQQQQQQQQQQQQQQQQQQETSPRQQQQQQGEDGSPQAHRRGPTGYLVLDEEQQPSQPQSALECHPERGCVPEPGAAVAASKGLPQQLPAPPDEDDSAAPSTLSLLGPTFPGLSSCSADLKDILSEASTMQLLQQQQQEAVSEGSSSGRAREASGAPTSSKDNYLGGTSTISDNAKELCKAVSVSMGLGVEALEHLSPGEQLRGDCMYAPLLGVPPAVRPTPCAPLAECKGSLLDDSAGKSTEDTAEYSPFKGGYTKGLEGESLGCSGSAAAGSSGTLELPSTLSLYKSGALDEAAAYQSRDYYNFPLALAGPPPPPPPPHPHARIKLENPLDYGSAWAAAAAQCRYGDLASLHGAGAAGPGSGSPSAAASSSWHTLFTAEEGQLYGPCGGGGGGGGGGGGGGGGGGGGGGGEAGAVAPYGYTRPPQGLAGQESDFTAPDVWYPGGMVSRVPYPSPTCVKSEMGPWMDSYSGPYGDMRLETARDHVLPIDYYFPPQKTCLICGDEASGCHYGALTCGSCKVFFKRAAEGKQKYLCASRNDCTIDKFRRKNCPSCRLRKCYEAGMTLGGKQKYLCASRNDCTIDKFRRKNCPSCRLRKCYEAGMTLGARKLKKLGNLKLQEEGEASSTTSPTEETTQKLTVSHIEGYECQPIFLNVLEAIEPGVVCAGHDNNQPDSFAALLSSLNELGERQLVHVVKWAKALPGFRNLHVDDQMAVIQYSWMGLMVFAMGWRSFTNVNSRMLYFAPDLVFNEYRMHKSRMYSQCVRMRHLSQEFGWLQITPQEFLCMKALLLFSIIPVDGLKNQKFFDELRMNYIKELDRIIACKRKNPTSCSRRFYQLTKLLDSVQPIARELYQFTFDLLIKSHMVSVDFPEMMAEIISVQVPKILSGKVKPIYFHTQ
Description: Cell Culture. Human CaP cell lines, LNCaP, 22Rv1, VCaP, PC3, and DU145 are obtained from the American Type Culture Collection (ATCC) and maintained in the standard culture media: RPMI-1640 supplemented with 10% fetal bovine serum (FBS). LNCaP, 22Rv1, and VCaP are androgen-responsive cell lines, while PC3 and DU145 are not. To establish SAT resistant CaP cell lines, LNCaP, 22Rv1, and VCaP are treated continuously with 10-50 μM abiraterone, apalutamide, darolutamide, or enzalutamide. After 3-6 months, stable cell lines are established and designated as LNCaP-Abi^R, LNCaP-Apa^R, LNCaP-Daro^R, LNCaP-Enz^R, VCaP-Abi^R, VCaP-Apa^R, VCaP-Daro^R, VCaP-Enz^R, 22Rv1-Abi^R, 22Rv1-Apa^R, 22Rv1-Daro^R and 22Rv1-Enz^R. Unless otherwise specified, the standard culture media for these SAT-resistant cell lines included 10 μM of their respective SAT. For the proteasome inhibitor study, the inhibitors MG132 and Epoxomicin are used. The E3 ligase inhibitors Heclin, Nutlin 3a, Thalidomide, and VH298 are used. Cell lines obtained from ATCC are confirmed by checking their morphology using optical microscopy, establishing baselines for cell proliferation, verifying species of origin using isoenzymology, and characterizing the cell's DNA fingerprint using short tandem repeat (STR) profiling. Mycoplasma contamination is also assessed using a PCR based detection system.
Immunoblot Analysis. CaP cells are collected and lysed with the lysis buffer (20 mM Tris-HCl (pH 7.5), 150 mM NaCl, 1 mM Na2EDTA, 1 mM EGTA, 1% Triton, 2.5 mM sodium pyrophosphate, 1 mM beta-glycerophosphate, 1 mM Na3VO4, and 1 μg/ml leupeptin) containing 1 mM phenylmethylsulfonyl fluoride (PMSF). Cell lysates are then centrifuged and protein in the supernatant is quantified. After separating 25-50 μg of protein using SDS-PAGE, samples are incubated with AR-V7, GR, PR, ERα, AR-FL, ubiquitin, or β-actin antibodies. For AR-V7, AR-FL, PR, GR, and ERα immunoblots, primary antibody is diluted 1:1000 in 5% skim milk. For the β-actin immunoblot, 1:10000 diluted primary antibody is used. All membranes are incubated overnight at 4° C. Following the incubation with appropriate secondary antibody, immunoblots are analyzed using SuperSignal West Femto Maximum Sensitivity Substrate (ThermoFisher).

[1] = tested on: 22Rv1-Enz^R tumor xenografts; test: 22Rv1-Enz^R tumor xenograft in castrated nu/nu mice; format: in vivo; settings: for tumor mass at 7 weeks: control approx. 1500 mm^3
Description: In Vivo Study. To explore the therapeutic potential of Test Compound, 22Rv1, 22Rv1-Enz^R, VCaP, and VCaP-Enz^R are injected into nu/nu immunodeficient mice. When the resulting tumors reached an average size of 3 mm in diameter, all animals are surgically castrated via bilateral orchiectomy and divided into four groups of five mice each. For anesthesia, 3% isoflurane gas inhalation is used. Tumor size was measured using calipers and tumor volume was calculated using the formula: tumor volume=length×width^2[…].
Mice are then treated daily with Test Compound with or without enzalutamide via the indicated route (intratumoral, intraperitoneal, or oral) for five to six weeks. At the end of the study, all animals are sacrificed and tumors are harvested and analyzed. Statistical significance is calculated using the Student's t-test for paired comparisons of experimental groups and, where appropriate, by Wilcoxon rank sum test, and by 2-way ANOVA. In vitro experiments are repeated a minimum of three times.
The in vivo effects of the Compound of Example 16 are assessed in mice using enzalutamide-resistant CaP xenografts. First, 22Rv1-Enz^R tumor xenografts are established in nu/nu mice. Upon CaP xenograft formation (average diameter of 3 mm), mice are randomized into controls or treatment. Control mice are treated with 100 μl vehicle containing 10 mg/ml enzalutamide (n=5). The treatment group is injected with 100 μl vehicle containing 2.5 mg/ml Compound of Example 16 and 10 mg/ml enzalutamide daily directly into tumors (n=5) and tumor volumes were followed. […] Tumors are harvested and analyzed at the end of the study period.

| DC50 (AR-FL; 22Rv1, 24 hours, immunoblot, read-out: DC50, concentration at which 50% of AR-FL degraded in 24 hours) [nM] | concentration from which AR-FL protein expression is decreased (immunoblot) (AR-FL; 22Rv1 cells, 24 hours, 0, 0.01, 0.1, 1 and 10 μM tested) [µM] | AR-FL protein expression level in parental and SAT-resistant 22Rv1, VCaP and LNCaP cells (AR-FL; immunoblot) | DC50 (AR-FL; 24 hours, immunoblot, read-out: DC50, concentration at which 50% of AR-FL is degraded in 24 hours) [nM] | SMILES | tumor volume at the end of 5 weeks ([1]; intratumoral daily, 100 μl of 2.5 mg/ml compound plus 10 mg/ml enzalutamide, control 800 mm^3) | tumor mass at 7 weeks ([1]; 0.83 mg/kg) [mm^3] | tumor mass at 7 weeks ([1]; 8.3 mg/kg) [mm^3] |
| --- | --- | --- | --- | --- | --- | --- | --- |
| 2000 | 1 | decreases the protein expression levels | – | Cc1ncsc1-c1ccc([C@H](C)NC(=O)[C@@H]2C[C@@H](O)CN2C(=O)[C@@H](NC(=O)CCCCNC(=O)COc2c(-c3csc(N4CCOCC4)n3)ccc(F)c2F)C(C)(C)C)cc1 [Example 16, (2S,4R)-1-((S)-2-(5-(2-(2,3-difluoro-6-(2-morpholinothiazol-4-yl)phenoxy)acetamido)pentanamido)-3,3-dimethylbutanoyl)-4-hydroxy-N-((S)-1-(4-(4-methylthiazol-5-yl)phenyl)ethyl)pyrrolidine-2-carboxamide] | approximately 500 mm^3 | – | – |
| – | – | – | < 500 | CN[C@@H](C)C(=O)N[C@H](C(=O)N1CCCC1C(=O)N[C@H](C(=O)NCCCCCCNC(=O)COc1c(-c2csc(N3CCOCC3)n2)ccc(F)c1F)C(c1ccccc1)c1ccccc1)C1CCCCC1 (stereo partly drawn) [Example 26, (S)-1-((S)-2-cyclohexyl-2-((S)-2-(methylamino)propanamido)acctyl)-N-((S)-1-((6-(2-(2,3-difluoro-6-(2-morpholinothiazol-4-yl)phenoxy)acetamido)hexyl)amino)-1-oxo-3,3-diphenylpropan-2-yl)pyrrolidine-2-carboxamide] (H-[NMeA][Chg][ξP][Dip]-X1) | – | < 600 | < 600 |
